Calls of active or inactive are those of the source.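 How the source made its calls: active means fitted half-maximal concentration for changing reporter fluorescence at or below a set limit; inactive means the rest.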

In one assay the target is Citrate synthase, peroxisomal (Saccharomyces cerevisiae (strain ATCC 204508 / S288c)) (UniProt P08679). The assay can be described thus: yeast TOR pathway CIT2-GFP reporter potency – flow cytometry, MLPCN hits, dose response (AID 2744). Particulars: S. cerevisiae CIT2-GFP strain, 3 h, at 33 µM (top of the series).
Citrate synthase, peroxisomal (Saccharomyces cerevisiae (strain ATCC 204508 / S288c)), sequence (P08679 whole entry, looked up): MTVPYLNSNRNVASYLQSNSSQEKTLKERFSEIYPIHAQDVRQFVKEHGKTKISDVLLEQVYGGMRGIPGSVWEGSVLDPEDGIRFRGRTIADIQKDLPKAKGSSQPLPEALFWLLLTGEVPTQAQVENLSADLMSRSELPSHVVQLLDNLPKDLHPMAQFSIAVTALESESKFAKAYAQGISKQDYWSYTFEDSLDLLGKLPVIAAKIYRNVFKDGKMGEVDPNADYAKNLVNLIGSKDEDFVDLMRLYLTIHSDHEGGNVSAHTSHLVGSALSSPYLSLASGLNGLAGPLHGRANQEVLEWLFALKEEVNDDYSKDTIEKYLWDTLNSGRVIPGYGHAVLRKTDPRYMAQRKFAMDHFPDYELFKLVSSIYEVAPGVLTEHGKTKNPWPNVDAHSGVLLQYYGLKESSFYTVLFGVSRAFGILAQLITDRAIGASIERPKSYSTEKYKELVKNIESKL
Consider `Cc1c(N2C(=O)/C(=C\c3ccccc3O)SC2=S)c(=O)n(-c2ccccc2)n1C`, for which the “GFP fluorescence, higher = induction” value was “inactive”.
Still for that read-out and setting: the same measure for `O=c1c(-c2ccc(Cl)cc2)[n+]([O-])c2ccccc2n1O`: “inactive”; for `Cc1ccc(C)c(/C=C/C(=O)c2ccccc(=O)c2O)c1`: “inactive”.
The same measure, in the same setting: the same measure for `COc1ccc(C(=O)NNC(=S)NC(=O)/C=C/c2cccs2)cc1`: “inactive”; for `O=C(O)c1cc[c]([Hg][Cl])cc1`: “inactive”.
In the case of `Cc1ccnc(N2C(=O)c3cccc4c([N+](=O)[O-])ccc(c34)C2=O)c1`, the “GFP fluorescence, higher = induction” value is “inactive”.
Same read-out and setting: the same measure for `O=C(Nc1nnc(-c2ccc(Cl)cc2)o1)c1ccccc1Br`: “inactive”; for `CC1=C(C)/C(=N\OS(=O)(=O)c2ccccc2)C=CC1=O`: “inactive”; for `O=C(/C=C/c1ccccc1Cl)c1ccccc(=O)c1O`: “inactive”.
Same read-out and setting: the same measure for `CC(C)(C)C(=O)NC(=S)NNC(=O)c1ccc(-c2ccccc2)cc1`: “inactive”; for `COc1ccc(N=Cc2nc(-c3ccccc3)oc2OC(=O)c2ccccc2)cc1`: “inactive”.
Take `COc1cc(N=c2ssnc2Cl)cc(OC)c1`: the “GFP fluorescence, higher = induction” value is “inactive”.
On the same count and under the same terms, in the case of `COc1ccccc1N1C(=O)c2cccc3c(C(=O)O)ccc(c23)C1=O` it was “inactive”; in that of `Cc1cc(C(=O)Nc2nc(-c3ccccn3)cs2)ccc1[N+](=O)[O-]`, “inactive”; in that of `COc1ccc(C(=O)/C=C2/C(=O)Nc3ccccc32)cc1OC`, “inactive”.
Still for that read-out and setting: in the case of `O=C(Oc1c(Cl)cc(Cl)c2cccnc12)c1cccc([N+](=O)[O-])c1` it was “inactive”; in that of `O=[N+]([O-])c1cc(CN2CCN(c3cccc(C(F)(F)F)c3)CC2)c2cccnc2c1O`, “inactive”.
With `O=c1c2cc(Br)ccc2nc(-c2ccc([N+](=O)[O-])cc2)n1O`, the “GFP fluorescence, higher = induction” value is “inactive”.
The same measure, in the same setting: the same measure for `O=C1N(c2ccccc2C(F)(F)F)O[C@]1(c1ccccc1)C1CCCCC1`: “inactive”; for `CCc1ccc(C(=O)/C=C/c2ccc([N+](=O)[O-])o2)cc1`: “inactive”; for `On1ccccc1=S`: “inactive”.
Same read-out and setting: the same measure for `O=C(Oc1ccnc2cc(Cl)ccc12)N1CCOCC1`: “inactive”; for `CC(Oc1cccc(Cl)c1)C(=O)Nc1nc(-c2ccccn2)cs1` (stereo not given): “inactive”; for `O=[N+]([O-])c1cc(Cl)c2cccnc2c1O`: “inactive”.
Take `O=S1(=O)C=C(Sc2nc3ccccc3s2)c2ccccc21`: the “GFP fluorescence, higher = induction” value is “inactive”.
Same read-out and setting: in the case of `C#CCOc1c(Br)cc(/C=C2/C(=O)ON=C2C)cc1OC` it was “inactive”.
The same measure, in the same setting: the same measure for `CCOC(=O)C1=C(O)c2ccccc2C(=O)/C1=C\c1ccc(C)cc1`: “inactive”; for `O=C(Sc1cccc2cccnc12)c1ccccc1Br`: “inactive”; for `CC(Oc1ccc2ccccc2c1)C(=O)NNC(=S)NC(=O)c1ccco1` (stereo not given): “inactive”.
Same read-out and setting: in the case of `COc1ccc(N/N=C(\C#N)C(N)=O)cc1` it was “inactive”.
Turning to `CCOC(=O)c1c(C)oc2c1c(C(c1ccncc1)N1CCOCC1)c(O)c1ccccc12` (stereo not given), the “GFP fluorescence, higher = induction” value is “inactive”.
Regarding `Cc1ccc(C(=O)O/N=C(\N)Cc2cccs2)c(Cl)c1`, the “GFP fluorescence, higher = induction” value was “inactive”.
Same read-out and setting: the same measure for `COc1cc(/C=C2\C(=O)ON=C2c2ccccc2)cc(OC)c1OC`: “inactive”; for `O=C(Nc1ccc(N2CCOCC2)cc1)C1CCN(S(=O)(=O)c2ccc3c(c2)OCCO3)CC1`: “inactive”; for `CCOC(=O)c1cc(-c2ccc(/C=C3/C(=O)NC(=O)C(C#N)=C3C)o2)ccc1Cl`: “inactive”.
For `O=c1oc(/C=C/c2ccc([N+](=O)[O-])s2)nc2ccccc12`, the “GFP fluorescence, higher = induction” value was “inactive”.
Same read-out and setting: the same measure for `COc1ccc(NC2=C(Cl)C(=O)N(CCc3ccccc3)C2=O)cc1`: “inactive”.
On the same count and under the same terms, the same measure for `O=C(Oc1oc(-c2ccco2)nc1C=Nc1ccccc1)c1ccco1`: “inactive”; for `COc1cc(SSc2cc(OC)cc([N+](=O)[O-])c2N)c(N)c([N+](=O)[O-])c1`: “inactive”; for `COc1ccc(-c2cc(C(F)(F)F)nc(S(C)(=O)=O)n2)cc1`: “inactive”.
The same measure, in the same setting: in the case of `Cc1cccc(/C=C/C(=O)c2ccc([N+](=O)[O-])o2)c1` it was “inactive”; in that of `COc1cc(/C=C2\C(=O)ON=C2c2ccc(Cl)cc2)ccc1O`, “inactive”; in that of `COc1ccc(/C=C2/C(=O)ON=C2c2ccccc2)cc1OC`, “inactive”.
Regarding `COc1ccc(N=Nc2ccc(O)c3ncccc23)cc1`, the “GFP fluorescence, higher = induction” value is “inactive”.
On the same count and under the same terms, the same measure for `CCN1C(=O)/C(=C\C(=O)c2cccs2)c2cc(Br)ccc21`: “inactive”; for `CCN(CC)c1ccc2cc(-c3nc(-c4ccc(OC)cc4)cs3)c(=O)oc2c1`: “inactive”.
On the same count and under the same terms, the same measure for `O=C1N(c2ccccc2C(F)(F)F)O[C@@]1(c1ccccc1)C1CCCC1`: “inactive”; for `C/C(=N/NC(=O)c1ccc(C(C)(C)C)cc1)c1ccccn1`: “inactive”; for `O=C(CSC1=NS(=O)(=O)c2ccccc21)Nc1ccccc1`: “inactive”.
Same read-out and setting: in the case of `O=C(/C=C/c1ccc(F)cc1)NC(=S)NNC(=O)c1cnccn1` it was “inactive”; in that of `CCN1/C(=C/C(C)=C/c2sc3ccccc3[n+]2CC)Sc2ccccc21`, “inactive”; in that of `CC(C)C(=O)NC(c1cccs1)c1cc([N+](=O)[O-])c2cccnc2c1O` (stereo not given), “inactive”.
In the case of `CC1(C(=O)NC(=S)NNC(=O)c2ccncc2)CCCCC1`, the “GFP fluorescence, higher = induction” value is “inactive”.
Still for that read-out and setting: the same measure for `O=C1C=CC(=O)N1c1ccc(N2CCCCC2)cc1`: “inactive”.
For `Cc1ccc(N/N=C(\C#N)C(N)=S)c(C)c1`, the “GFP fluorescence, higher = induction” value is “inactive”.
The same measure, in the same setting: the same measure for `CN(C)/C=C/C(=O)c1ccc(-c2ccc(Cl)cc2Cl)o1`: “inactive”; for `O=C1C=CC(=O)N1c1ccc(OC(F)F)cc1`: “inactive”; for `Cc1ccc(S(=O)(=O)N2CC(C(=O)O)=CC[C@H]2c2ccc(Cl)cc2)cc1`: “inactive”.
Still for that read-out and setting: in the case of `Cc1ccc(C(CC(=O)O)NC(=O)c2ccc(S(=O)(=O)N3CC(C)OC(C)C3)cc2)cc1` (stereo not given) it was “inactive”.
For `O=C(CS(=O)c1ccccc1[N+](=O)[O-])Oc1ccc(Br)cc1` (stereo not given), the “GFP fluorescence, higher = induction” value is “inactive”.
As for `Cc1cc(S(=O)(=O)ON2C(=O)c3ccccc3C2=O)ccc1F`, the “GFP fluorescence, higher = induction” value was “inactive”.
Regarding `COc1ccc(Cl)cc1C(Nc1cccnc1)c1ccc2cccnc2c1O` (stereo not given), the “GFP fluorescence, higher = induction” value is “inactive”.
On the same count and under the same terms, the same measure for `CC(OC(=O)c1ccco1)C(=O)Nc1nc(-c2ccccc2)cs1` (stereo not given): “inactive”.
With `Cc1ccc(N=Nc2ccc(O)c3ncccc23)cc1`, the “GFP fluorescence, higher = induction” value was “inactive”.
On the same count and under the same terms, in the case of `O=C1C(=O)c2ccccc2-c2ccccc21` it was “inactive”.
For `N#Cc1cc([N+](=O)[O-])c(-n2nnc3ccccc32)c([N+](=O)[O-])c1`, the “GFP fluorescence, higher = induction” value is “inactive”.
Same read-out and setting: the same measure for `O=C(/C=C/c1ccccc1)NC(=S)NNC(=O)Cc1cccs1`: “inactive”; for `O=C1c2cccc3c([N+](=O)[O-])ccc(c23)C(=O)N1c1ccccn1`: “inactive”.
As for `O=C(OCn1ncc(Br)c(Br)c1=O)c1c(F)cccc1F`, the “GFP fluorescence, higher = induction” value is “inactive”.
Same read-out and setting: in the case of `CCOC(=O)C(C(=O)OCC)C(C(=O)OCC)N1CCOCC1` (stereo not given) it was “inactive”.
`CC(=O)Oc1ccc(/C=c2\sc3ncnn3c2=O)cc1`: the “GFP fluorescence, higher = induction” value is “inactive”.
On the same count and under the same terms, the same measure for `COc1cccc(N=Cc2nc(-c3ccccc3)oc2OC(C)=O)c1`: “inactive”; for `COc1ccc(C(=O)NC(=S)NNC(=O)c2cnccn2)cc1`: “inactive”; for `CCC(C)/C(C)=N/NC(=O)c1ccc(COc2ccc(Cl)c(C)c2)cc1` (stereo not given): “inactive”.
On the same count and under the same terms, in the case of `CCN(CC)C(=O)Oc1ccnc2cc(Cl)ccc12` it was “inactive”; in that of `CC(=O)CSc1ncnc2c1cnn2-c1ccccc1`, “inactive”.
The same measure, in the same setting: the same measure for `O=C1CCN(S(=O)(=O)c2ccccc2)CCN1CCOCc1ccc(F)cc1`: “inactive”; for `CC(C)[C@]1(c2ccc(Cl)cc2)ON(c2ccccc2C(F)(F)F)C1=O`: “inactive”; for `Cc1[nH][nH]c(=O)c1C(c1ccc(-c2ccc(Cl)cc2)o1)c1c(C)[nH][nH]c1=O`: “inactive”.
Regarding `CS(=O)(=O)c1nc(-c2cccs2)cc(C(F)(F)F)n1`, the “GFP fluorescence, higher = induction” value is “inactive”.
Still for that read-out and setting: in the case of `CCC1(c2ccccc2)ON(c2c(Br)cccc2Br)C1=O` (stereo not given) it was “inactive”.

The assay is the same for the next values; noted with them: S. cerevisiae CIT2-GFP strain, flow cytometry fluorescence, 3 h.
Turning to `Cc1ccc(/C(N)=N/OC(=O)c2ccc(F)cc2)cc1`, the EC50 is 3.81 µM.
On to `N=C1/C(=C\c2coc3ccccc3c2=O)C(=O)N=C2SC(c3ccncc3)=NN12`, for which the EC50 was 13 µM.
The same measure, in the same setting: in the case of `CNc1nc(N)c([N+](=O)[O-])c(Nc2cccc(F)c2)n1` it was 4.36 µM; in that of `Cc1ccc(NC(=O)ON=C2CCCC2)cc1`, 3.79 µM.

Values taken from PubChem BioAssay AID2744 (NMMLSC, 2010).
